From patent US20200048267A1, “OGA INHIBITOR COMPOUNDS” (Janssen Pharmaceutica NV, priority 2017, published 2020) come the findings set out here.

For the test, the target named is T1, recombinant human Meningioma Expressed Antigen 5 (MGEA5), also referred to as O-GlcNAcase (OGA) (Homo sapiens, UniProt O60502).
T1 construct: Full length OGA enzyme was purchased at OriGene (cat # TP322411); purchased OriGene TP322411
T1 sequence (O60502 1-916): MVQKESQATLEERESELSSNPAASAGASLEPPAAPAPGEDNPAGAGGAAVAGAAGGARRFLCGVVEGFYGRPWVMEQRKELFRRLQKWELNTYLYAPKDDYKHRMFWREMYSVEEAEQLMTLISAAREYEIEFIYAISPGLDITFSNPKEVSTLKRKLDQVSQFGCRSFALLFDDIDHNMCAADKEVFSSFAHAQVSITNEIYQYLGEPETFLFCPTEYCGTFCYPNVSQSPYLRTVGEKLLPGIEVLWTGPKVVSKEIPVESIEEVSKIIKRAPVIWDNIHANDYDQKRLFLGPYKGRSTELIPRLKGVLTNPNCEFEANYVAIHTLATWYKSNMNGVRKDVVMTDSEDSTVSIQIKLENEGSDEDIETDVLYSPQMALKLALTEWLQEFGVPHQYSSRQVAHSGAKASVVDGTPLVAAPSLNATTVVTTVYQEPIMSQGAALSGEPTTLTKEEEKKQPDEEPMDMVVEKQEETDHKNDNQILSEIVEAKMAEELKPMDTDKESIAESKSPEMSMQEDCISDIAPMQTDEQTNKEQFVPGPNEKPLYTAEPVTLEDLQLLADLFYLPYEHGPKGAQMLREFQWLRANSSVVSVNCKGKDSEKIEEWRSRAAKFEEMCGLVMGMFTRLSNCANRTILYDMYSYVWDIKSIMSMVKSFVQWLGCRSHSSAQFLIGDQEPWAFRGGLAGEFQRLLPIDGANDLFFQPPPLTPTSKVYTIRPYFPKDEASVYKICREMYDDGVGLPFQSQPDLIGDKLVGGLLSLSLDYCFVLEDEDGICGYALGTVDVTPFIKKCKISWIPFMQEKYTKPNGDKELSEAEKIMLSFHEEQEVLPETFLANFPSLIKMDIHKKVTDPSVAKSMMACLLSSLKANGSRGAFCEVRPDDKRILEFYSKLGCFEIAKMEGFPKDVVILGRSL
The test is described as follows: OGA biochemical assay (inhibition of FM-GlcNAc hydrolysis, fluorescence). As to conditions: for Emax: read-out: ENZYMATIC Emax (%); for IC50: read-out: ENZYMATIC hOGA, pIC50 (converted). An excerpt: The assay is based on the inhibition of the hydrolysis of fluorescein mono-β-D-N-Acetyl-Glucosamine (FM-GlcNAc) (Mariappa et al. 2015, Biochem J 470:255) by the recombinant human Meningioma Expressed Antigen 5 (MGEA5), also referred to as O-GlcNAcase (OGA). The hydrolysis FM-GlcNAc (Marker Gene technologies, cat # M1485) results in the formation of B-D-N-glucosamineacetate and fluorescein. The fluorescence of the latter can be measured at excitation wavelength 485 nm and emission wavelength 538 nm. An increase in enzyme activity results in an increase in fluorescence signal. Full length OGA enzyme was purchased at OriGene (cat # TP322411). The enzyme was stored in 25 mM Tris.HCl, pH 7.3, 100 mM glycine, 10% glycerol at −20° C. Thiamet G and GlcNAcStatin were tested as reference compounds (Yuzwa et al. 2008 Nature Chemical Biology 4:483; Yuzwa et al. 2012 Nature Chemical Biology 8:393). The assay was performed in 200 mM Citrate/phosphate buffer supplemented with 0.005% Tween-20. 35.6 g Na2HPO4 2 H2O (Sigma, # C0759) were dissolved in 1 L water to obtain a 200 mM solution. 19.2 g citric acid (Merck, # 1.06580) was dissolved in 1 L water to obtain a 100 mM solution. pH of the sodium phosphate solution was adjusted with the citric acid solution to 7.2. The buffer to stop the reaction consists of a 500 mM Carbonate buffer, pH 11.0. 734 mg FM-GlcNAc were dissolved in 5.48 mL DMSO to obtain a 250 mM solution and was stored at −20° C. OGA was used at 2 nM concentration and FM-GlcNAc at a 100 uM final concentration. Dilutions were prepared in assay buffer.
50 nl of a compound dissolved in DMSO was dispensed on Black Proxiplate™ 384 Plus Assay plates (Perkin Elmer, #6008269) and 3 μl fl-OGA enzyme mix added subsequently. Plates were pre-incubated for 60 min at room temperature and then 2 μl FM-GlcNAc substrate mix added. […] Plates were briefly centrifuged for 1 min at 1000rpm and incubate at room temperature for 6 h. To stop the reaction 5 μl STOP buffer were added and plates centrifuge again 1 min at 1000 rpm.
Fluorescence was quantified in the Thermo Scientific Fluoroskan Ascent or the PerkinElmer EnVision with excitation wavelength 485 nm and emission wavelength 538 nm.
For analysis a best-fit curve is fitted by a minimum sum of squares method. From this an IC50 value and Hill coefficient was obtained. High control (no inhibitor) and low control (saturating concentrations of standard inhibitor) were used to define the minimum and maximum values.

As for `CC(=O)Nc1ncc(CN2CCC3(CCN(c4cncnc4)C3)C2)s1` (stereo not shown) [Product 43], the Emax (usually the size of the effect at its maximum, as opposed to the concentration needed) was determined as 99.8% and the IC50 is 53.7 nM.

Consider `CC(=O)Nc1ncc(CN2CCC3(CCN(c4nc(C)ncc4C)C3)C2)s1` (stereo not shown) [Product 54], for which the Emax is 101% and the IC50 was 28.2 nM.

On to `c1cnc2cc(CN3CCC4(CCN(c5cncc(C6CC6)n5)C4)C3)ccc2n1` (stereo not shown) [Product 14], for which the maximal response (Emax) was 94.2% and the IC50 was 724 nM.

As to `Cc1cc(N2CCC3(CCN(C(C)c4ccc5c(c4)OCO5)C3)C2)nc(C)n1` (stereo not shown) [Product 10], the Emax turned out to be 99.8% and the IC50 is 135 nM.

`CC(=O)Nc1ncc(CN2CCC3(CCN(c4nnc(C)cc4C)C3)C2)s1` (stereo not shown) [Product 55]: the Emax amounted to 99% and the IC50 was 45.7 nM.

Consider `CC(=O)Nc1ncc(CN2CCC3(CCN(c4ccc(C)nc4)C3)C2)s1` (stereo not shown) [Product 44], for which the maximal effect (Emax) came to 102% and the IC50 is 33.9 nM.

`Cc1cc(N2CCC3(CCN(C(C)c4ccc5nccnc5c4)C3)C2)cc(C)n1` (stereo not shown) [Product 6]: the Emax stood at 97.8% and the IC50 is 97.7 nM.

On to `CC(=O)Nc1ncc(CN2CCC3(CCN(c4nc(C)cnc4C)C3)C2)s1` (stereo not shown) [Product 40], for which the Emax amounted to 98.4% and the IC50 was 66.1 nM.

For `CC(=O)Nc1ncc(CN2CCC3(CCN(c4cc(C)nc(C)c4)C3)C2)s1` (single isomer, unassigned) [Product 2], the maximum response (Emax) is 101% and the IC50 was 10.2 nM.

`CC(=O)Nc1ncc(CN2CCC3(CCN(c4cc(F)ncc4C)C3)C2)s1` (stereo not shown) [Product 56]: the Emax was 100% and the IC50 was 51.3 nM.

Consider `CC(=O)Nc1ncc(CN2CCC3(CCN(c4cnccn4)C3)C2)s1` (stereo not shown) [Product 11], for which the Emax was determined as 99.1% and the IC50 is 81.3 nM.

With `CC(=O)Nc1ncc(CN2CCC3(CCN(Cc4cc(C)nc(C)c4)C3)C2)s1` (stereo not shown) [Product 17], the Emax worked out at 90.6% and the IC50 is 562 nM.

As to `CC(=O)Nc1ncc(CN2CCC3(CCN(c4cncc(C)n4)C3)C2)s1` (stereo not shown) [Product 12], the Emax worked out at 101% and the IC50 is 34.7 nM.

On to `CC(=O)Nc1ncc(CN2CCC3(CCN(c4cnc(C)nc4)C3)C2)s1` (stereo not shown) [Product 45], for which the maximum response (Emax) was found to be 99.2% and the IC50 is 61.7 nM.

Turning to `CC(=O)Nc1ncc(CN2CCC3(CCN(Cc4ccc(C(F)(F)F)cn4)C3)C2)s1` (stereo not shown) [Product 35], the Emax was 84.4% and the IC50 is 2000 nM.

Consider `Cc1cc(N2CCC3(CCN(Cc4ccc5nccnc5c4)C3)C2)cc(C)n1` (single isomer, unassigned) [Product 5], for which the “ENZYMATIC Emax (%)” value is 98.6% and the IC50 was 219 nM.

For `CC(c1ccc2nccnc2c1)N1CCC2(CCN(c3cncc(C4CC4)n3)C2)C1` (stereo not shown) [Product 15], the Emax is 93.4% and the IC50 was 229 nM.

Turning to `COc1nc(C)ccc1N1CCC2(CCN(Cc3cnc(NC(C)=O)s3)C2)C1` (stereo not shown) [Product 53], the Emax was 97.1% and the IC50 is 309 nM.

Take `CC(=O)Nc1ncc(CN2CCC3(CCN(c4ncc(F)cc4F)C3)C2)s1` (stereo not shown) [Product 46]: the Emax is 99% and the IC50 is 112 nM.

As to `Cc1cc(N2CCC3(CCN(C(C)c4ccc5c(c4)OCO5)C3)C2)cc(C)n1` (stereo not shown) [Product 8], the Emax was 96.6% and the IC50 is 100 nM.
